Data taken from patent US20260355189A1, “SMALL MOLECULE INHIBITORS OF NEUTROPHIL EXOCYTOSIS AND INFLAMMATION” (THE SCRIPPS RESEARCH INSTITUTE, priority 2022, published 2026).

Columns and labels:
[1] = test system: Nlrp3^A350V cre ERT2 mice; assay: Nlrp3 A350V cre ERT2 mouse model of cryopyrin-associated periodic syndrome (CAPS); format: in vivo; details: 30 mg/Kg i.p.; for Number of leukocytes and leukocyte subtypes: 7 or 13 days, FIG. 9B; for Activation of circulating neutrophils (CD63 upregulation): FIG. 9D; for Neutrophilic infiltration into the kidney (total MMP9 and MPO levels): tissues day 13, FIG. 9F
Procedure: […] cre ERT2 and control mice were injected i.p. with 50 mg/kg tamoxifen followed by C6 (30 mg/Kg) or vehicle as described. B) Total leukocytes numbers and subtypes were not affected. C) Animals suffer weight loss with disease progression. D) The activation of circulating neutrophils is attenuated by C6. E, The percentage of immature (pro-inflammatory, Ly6G-) neutrophils in circulation (blood) in Nlrp3^A350V is attenuated by treatment with C6 (4.29%) as compared to vehicle (11.0%). […] F, The protection was specific for kidneys.
In this model, disease is caused by the Nlrp3^A350V mutations. The Nlrp3^A350V inducible mouse model (MWS CreT) is homologous to humans suffering from CAPS with the Muckle-Wells A352V mutation in the NLRP3 gene. The tamoxifen inducible Nrp3^A350V cre ERT2 and control animals were injected (i.p.) with 50 mg/kg tamoxifen free base to induce disease (J Immunol 189, 2707-2711, doi:10.4049/jimmunol.1101737 (2012)). The mice (6-12 weeks old) had access to food and water ad libitum. All animal studies were performed in compliance with the U.S. Department of Health and Human Services Guide for the Care and Use of Laboratory Animals and according to NIH and institutional guidelines. All animal protocols and procedures were approved by the University of California San Diego Institutional Animal Care and Use Committees (IACUC). Mice were treated with the neutrophil specific inhibitor NEIa-C6 or vehicle (5% DMSO in PBS). In this model, NLRP3^A350V disease develops progressively in 15 days after first induction with tamoxifen. Between day 0 and day 5 mice were injected (i.p) every other day with tamoxifen followed by NEIa-C6 (30 mg/Kg) or vehicle. Next, administration of NEIa-C6 or vehicle continued until day 13, in the absence of tamoxifen. Blood samples were obtained at day 7 and blood and tissues harvested at day 13. […] The effect was specific for kidneys as lung and liver infiltration was unaffected (FIG. 9G).

[2] = test system: neutrophils that carry the NLRP3 A350V mutation; assay: Secretion by bone-marrow-derived neutrophils from Nlrp3 A350V (CAPS) mice; format: cell-based, mouse; details: 10 μM, 1 hour, LPS and fMLF
Text: FIG. 8A-C. […] A, gelatinase (MMP9) granules; B, azurophilic granules (MPO, myeloperoxidase); C, CD63 (an endolysosomal marker). […] Subsequently, neutrophils were either stimulated with lipopolisacharide (LPS) and the chemotatctic peptide fMLF or left untreated. C20 (Nexinhib20 is used as control). Mean±SEM, n=3. In this and subsequent figures, p<0.05; **, p<0.01; ***, p<0.001; ****, p<0.0001, ANOVA.
These compounds are now tested using neutrophils from a mouse model of Cryopyrin-Associated Periodic Syndrome (CAPS), a systemic inflammatory disease in humans, caused by gain-of-function mutations of the NOD-like receptor family member, cryopirin, also known as NLRP3 (J Cin Immunol 39, 277-286, doi:10.1007/s10875-019-00638-z (2019)). Heterozygous NLRP3 mutations lead to hyper-responsive NLRP3 inflammasome function characterized by increased caspase-1 (Casp1) activation and […], and is observed in patients and in animal models with NLRP3-gain-of-function mutations. […] Subsequently, neutrophils were either stimulated with LPS and the chemotatctic peptide fMLF or left untreated.

[3] = test system: wild-type neutrophils; assay: Secretion by wild-type neutrophils; format: cell-based
[4] = test system: human neutrophils (azurophilic granule marker CD63); assay: Flow cytometry of azurophilic granule mobilization (CD63) in human neutrophils; format: cell-based; details: Homo sapiens, Neutrophil, 1 hour, GM-CSF + fMLP, N=15 donors, FIG. 4, read-out: Mean % inhibition of CD63 up-regulation
Text: (§1) Human neutrophils were isolated from normal donor's blood by Ficoll density centrifugation, as described previously (23). Murine bone marrow-derived neutrophils were isolated using a Percoll gradient fractionation system as described (24). A three-layer Percoll gradient was used (52%, 64%, and 72%), and neutrophils were isolated from the 64-72% interface, washed, and used in the assays.
(§2) Method: The up-regulation of granule membrane-associated neutrophil markers at the plasma membrane was analyzed by flow cytometry. In these studies, flow cytometry analysis was performed by resuspension of 1×10^6 human neutrophils in phenol red-free RPMI 1640 medium, treated with a 10 μM solution of Inhibitors C1, C2, C4, C5, and C6 and Nexinhib 20 (C20) or DMSO control for 1 hour, and stimulated with physiological agonists GM-CSF (10 ng/ml) for 30 min followed by the addition of fMLP (1 μM) to induce degranulation or left untreated at 37 °C (non-stimulated, NS). The reactions were stopped by transferring the samples to ice and immediately spinning down the cells to initiate blocking and staining. To analyze the plasma membrane expression of plasma membrane markers, the cells were blocked in ice-cold PBS containing 1% BSA and stained with phycoerythrin (PE)-, FITC-, or Alexa647-conjugated anti-human CD63, CD66b, MMP9, and CD11b antibodies that detect extracellular epitopes of these markers. The cells were then washed and fixed in 1% paraformaldehyde in PBS. Samples were analyzed using a NovoCyte flow cytometer, and the data were processed using FlowJo software.

[5] = test system: human neutrophils (specific granule marker CD66b); assay: Flow cytometry of specific granule exocytosis (CD66b) in human neutrophils; format: cell-based; details: 1 hour, GM-CSF + fMLP
Text: as §1, §2

[6] = test system: human neutrophils (secretory vesicle marker CD11b); assay: Flow cytometry of secretory vesicle mobilization (CD11b) in human neutrophils; format: cell-based; details: 10 μM, 1 hour; GM-CSF + fMLP; relative to DMSO; N=15 donors; FIG. 7
Text: as §1, §2

Number of leukocytes and leukocyte subtypes ([1]; listed as C6): not affected
SMILES: CCN(CC)CCNC(=O)/C(=C/c1cccc([N+](=O)[O-])c1)n1cncn1 [154 (C6)]
Number of leukocytes and leukocyte subtypes ([1]; listed as NEIa-C6): did not affect the number of any leukocyte subtype
Neutrophil mediated inflammation in vivo ([1]; FIG. 9): inhibits neutrophil mediated inflammation in vivo
Activation of circulating neutrophils (CD63 upregulation) ([1]; listed as C6): attenuated
Activation of circulating neutrophils (CD63 upregulation) ([1]; listed as NEIa-C6): decreased neutrophil activation in vivo
Lung and liver neutrophilic infiltration ([1]; FIG. 9G): unaffected
Neutrophilic infiltration into the kidney (total MMP9 and MPO levels) ([1]; listed as C6): significantly decreased
Neutrophilic infiltration into the kidney (total MMP9 and MPO levels) ([1]; listed as NEIa-C6): significantly protected kidneys from neutrophilic infiltration
Percentage of immature (pro-inflammatory, Ly6G-) neutrophils in blood ([1]; vehicle 11.0%, FIG. 9E): 4.29%
Weight loss ([1]; vs vehicle, FIG. 9C): partially protected from weight loss
Number of pro-inflammatory immature neutrophils in blood ([1]; vs vehicle, FIG. 9E): decreased the number of pro-inflammatory immature neutrophils in blood
Mobilization of azurophilic granules (MPO) ([2]; FIG. 8): inhibit the mobilization
Mobilization of gelatinase granules (MMP9) ([2]; FIG. 8): inhibit the mobilization of gelatinase granules (MMP9)
Neutrophil secretion (hyperactivation of secretion) ([2]; Nlrp3 A350V and wild type, FIG. 8A-C): inhibit the hyperactivation of secretion
Mobilization of CD63 ([2]; murine neutrophils, FIG. 8): significantly inhibited the mobilization of CD63
Inhibitory effect on wild-type neutrophils [3]: selective inhibitory effect on wild-type neutrophils
inhibition at 10 µM [4]: 58.1%
Inhibition of CD66b up-regulation ([5]; 10 μM, relative to DMSO, FIG. 5): reduced the up-regulation of CD66b
inhibition at 10 µM ([5]; Homo sapiens, Neutrophil, N=12 donors, FIG. 5, read-out: % inhibition of CD66b up-regulation): 42.3%
Release of CD11b+ vesicles / CD11b upregulation [6]: unaffected
